Results as given in patent US4822790A, “1-Sulfo-2-oxoazetidine derivatives and their production” (Takeda Chemical Industries, Ltd., priority 1980, dated 1989).
Values after ≈ are worked out from the molar mass of the structure shown. Structures can show the parent of a compound that is named as a salt.

How the values were obtained:
Type in all cases: cell-based
[1] = test system: Enterobacter cloacae IFO 12937; assay: MIC by agar dilution method (Experiment C), Enterobacter cloacae IFO 12937; settings: IFO12937, Trypticase Soy agar, about 10^8 CFU/ml, 37° C. overnight, read-out: Minimal inhibitory concentration (MIC)
Method: (§1) The tables given below set forth the minimal inhibitory concentrations (MIC) of some typical compounds [I]C as obtained in the working examples. The minimal inhibitory concentrations of the tested compounds are determined by the agar dilution method. Namely, 1.0 ml. of aqueous solution of the tested compounds diluted by serial dilutions is poured into test petri dish. Subsequently 9.0 ml. of Trypticase Soy agar is poured into the dish and mixed. On the mixed agar plate, one loopful of bacterial suspension (about 10^8 CFU/ml.) of test microorganism is streaked. After the incubation at 37° C. overnight, the lowest concentration of the tested compounds which cause apparently complete inhibition of growth of the test microorganism is taken to be minimal inhibitory concentration. (1) Enterobacter cloacae IFO 12937

[2] = test system: Klebsiella pneumoniae TN 1711; assay: MIC by agar dilution method (Experiment C), Klebsiella pneumoniae TN 1711; settings: TN1711, Trypticase Soy agar, about 10^8 CFU/ml, 37° C. overnight, read-out: Minimal inhibitory concentration (MIC)
Method: as §1, with “(2) Klebsiella pneumoniae TN 1711” for “(1) Enterobacter cloacae IFO 12937”

[3] = test system: Escherichia coli 0-111; assay: Antibacterial test (MIC), Escherichia coli 0-111; settings: Escherichia coli, 0111; medium TSA; read-out: Minimum inhibitory concentration (MIC)
Excerpt: (§2) The following is media and compounds employed in the antibacterial test.
(§3) TSA=Trypticase soy agar [Baltimore Biologicals (U.S.A.)]
(§4) B-TSA=Blood trypticase soy agar

[4] = test system: Escherichia coli T-7; assay: Antibacterial test (MIC), Escherichia coli T-7; settings: Escherichia coli, T7; medium TSA; read-out: Minimum inhibitory concentration (MIC)
Excerpt: as §2, §3, §4

Compound	MIC [1]	MIC [2]	MIC [3]	MIC [4]
C=CCO/N=C(\C(=O)N[C@H]1C(=O)N(S(=O)(=O)O)[C@H]1C(=O)OC)c1csc(N)n1 (relative stereo) [Example No. 72C, sodium cis-3-[2-(2-amino-4-thiazolyl)-2-allyloxyiminoacetamido]-4-methoxycarbonyl-2-oxoazetidine-1-sulfonate]	1.56 µg/mL			
CC(=O)OC[C@H]1[C@@H](NC(=O)/C(=N\OC(C)(C)C(=O)O)c2csc(N)n2)C(=O)N1S(=O)(=O)O (relative stereo) [Example No. 136C, cis-3-[2-(2-amino-4-thiazolyl)-2-(1-methyl-1-carboxyethyloxyimino)acetamido]-4-acetoxymethyl-2-oxoazetidine-1-sulfonic acid disodium salt (syn-isomer)]		1.56 µg/mL		
CO/N=C(\C(=O)N[C@H]1C(=O)N(S(=O)(=O)O)[C@H]1COC(N)=O)c1csc(N)n1 (relative stereo) [Example No. 138C, sodium cis-3-[2-(2-amino-4-thiazolyl)-2-methoxyiminoacetamido]-4-carbamoyloxymethyl-2-oxoazetidine-1-sulfonate (syn-isomer)]		6.25 µg/mL		
CCN1CCN(C(=O)N[C@@H](C(=O)NC2CN(S(=O)(=O)O)C2=O)c2ccccc2)C(=O)C1=O (single isomer, unassigned) [Compound B, Sodium 3-[D(-)-N-(4-ethyl-2,3-dioxo-1-piperazinocarbonyl)-phenylglycinamido]-2-oxoazetidine-1-sulfonate]			0.2 µg/mL	> 100 µg/mL
CCN1CCN(C(=O)NC(C(=O)NC2CN(S(=O)(=O)O)C2=O)c2csc(N)n2)C(=O)C1=O (centres unmarked) [Compound D, Sodium 3-[2-(4-ethyl-2,3-dioxo-1-piperazinocarboxamido)-2-(2-amino-4-thiazolyl)-acetamido]-2-oxoazetidine-1-sulfonate]			0.1 µg/mL	> 100 µg/mL
CCCCCCCCN1CCN(C(=O)N[C@@H](C(=O)NC2CN(S(=O)(=O)O)C2=O)c2ccccc2)C(=O)C1=O (stereo partly drawn) [Compound G, Sodium 3-[D-2-(4-n-octyl-2,3-dioxo-1-piperazinocarboxamido)-2-phenylacetamido]-2-oxoazetidine-1-sulfonate]			0.78 µg/mL	> 100 µg/mL
O=C(NC1CN(S(=O)(=O)O)C1=O)[C@H](NC(=O)N1CCN(N=Cc2cccs2)C1=O)c1ccccc1 (stereo partly drawn) [Compound K, Sodium 3-[D-2-[[2-oxo-3-(thiophen-2-aldoimino)-imidazolidin-1-yl]-carboxamido]-2-phenylacetamido]-2-oxoazetidine-1-sulfonate]			0.39 µg/mL	> 100 µg/mL

Continued, in another order:

MIC [1]	MIC [2]	Compound	MIC [3]	MIC [4]
6.25 µg/mL	0.2 µg/mL	COC(=O)[C@H]1[C@@H](NC(=O)/C(=N\OCC(=O)O)c2csc(N)n2)C(=O)N1S(=O)(=O)O (relative stereo) [Example No. 65C, cis-3-[2-(2-amino-4-thiazolyl)-2-carboxylmethyloxyiminoacetamido]-4-methoxycarbonyl-2-oxoazetidine-1-sulfonic acid disodium salt]		
3.13 µg/mL	0.78 µg/mL	COC(=O)[C@H]1[C@@H](NC(=O)/C(=N\OC(C)(C)C(=O)O)c2csc(N)n2)C(=O)N1S(=O)(=O)O (relative stereo) [Example No. 68C, cis-3-[2-(2-amino-4-thiazolyl)-2-(1-methyl-1-carboxyethyloxyimino)acetamido]-4-methoxycarbonyl-2-oxoazetidine-1-sulfonic acid disodium salt]		
1.56 µg/mL (≈ 3.36 µM)	0.39 µg/mL (≈ 0.84 µM)	CC(C)(O/N=C(\C(=O)N[C@H]1C(=O)N(S(=O)(=O)O)[C@H]1C(N)=O)c1csc(N)n1)C(=O)O (relative stereo) [Example No. 133C, cis-3-[2-(2-amino-4-thiazolyl)-2-(1-methyl-1-carboxyethyloxyimino)acetamido]-4-carbamoyl-2-oxoazetidine-1-sulfonic acid (syn-isomer)]		
